IC50 data for 36 compounds are collected here from US9637491B2, “Pyrazolo[4,3-D]pyrimidines as kinase inhibitors” (Origenis GmbH, priority 2012, dated 2017).

The target of the assay is T1, SYK kinase (Homo sapiens, UniProt P43405).
T1 construct: purchased Invitrogen, Carlsbad
In words: SYK assay (OMNIA Kinase Assay, Invitrogen). Type of assay: biochemical. The note with it: SYK Activities; 1 mM ATP, 10 μM Omnia Peptide Substrate Tyr 7, 30° C. The gist of the method: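 Continuous-read fluorescence kinase assay: SOX-labelled Tyr 7 peptide (10 μM) with 1 mM ATP and 0.2 mM DTT, 30° C, reaction started by adding SYK. Fluorescence (ex 360/em 485 nm) read every 30 s for 30 min. IC50 from sigmoidal fit of reaction velocity versus inhibitor concentration.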

As usually defined, the IC50 is the concentration that inhibits the measured activity by half. The low end stands for inhibition by little substance, the high end for a need for much substance. Regarding `COc1cc(Nc2nc(C3CC3)nc3cn[nH]c23)ccc1N1CCOCC1` [Example 35, 5-cyclopropyl-N-(3-methoxy-4-morpholinophenyl)-1H-pyrazolo[4,3-d]pyrimidin-7-amine], the IC50 is less than 10 nM.

In turn, `CC(=O)N1CCN(c2ccc(Nc3nc(-c4c(F)cccc4F)nc4cn[nH]c34)cc2)CC1` [Example 13, 1-(4-(4-((5-(2,6-difluorophenyl)-1H-pyrazolo[4,3-d]pyrimidin-7-yl)amino)phenyl)piperazin-1-yl)ethan-1-one] returned a half-maximal inhibitory concentration (IC50) of 100 to 1000 nM.

`CC(=O)N1CCN(c2ccc(Nc3nc(-c4ccccc4F)nc4cn[nH]c34)cc2)CC1` [Example 26, 1-(4-(4-((5-(2-fluorophenyl)-1H-pyrazolo[4,3-d]pyrimidin-7-yl)amino)phenyl)piperazin-1-yl)ethan-1-one] registered an IC50 of 100 to 1000 nM.

As to `O=C1CCCc2ccc(Nc3nc(-c4ccco4)nc4cn[nH]c34)cc2N1` [Example 113, 8-((5-(furan-2-yl)-1H-pyrazolo[4,3-d]pyrimidin-7-yl)amino)-4,5-dihydro-1H-benzo[b]azepin-2(3H)-one], the IC50 was in the range of 10 to 100 nM.

`CN1CCC(n2cc(Nc3nc(-c4ccoc4)nc4cn[nH]c34)cn2)CC1` [Example 202, 5-(furan-3-yl)-N-(1-(1-methylpiperidin-4-yl)-1H-pyrazol-4-yl)-1H-pyrazolo[4,3-d]pyrimidin-7-amine] showed a half-maximal inhibitory concentration (IC50) of less than 10 nM.

On to `CC(=O)N1CCN(c2ccc(Nc3nc(C4CC4)nc4cn[nH]c34)cn2)CC1` [Example 237, 1-(4-(5-((5-cyclopropyl-1H-pyrazolo[4,3-d]pyrimidin-7-yl)amino)pyridin-2-yl)piperazin-1-yl)ethan-1-one], for which the IC50 was 10 to 100 nM.

The compound `c1ccc2sc(-c3nc(Nc4cnn(C5CCOCC5)c4)c4[nH]ncc4n3)nc2c1` [Example 413, 5-(benzo[d]thiazol-2-yl)-N-(1-(tetrahydro-2H-pyran-4-yl)-1H-pyrazol-4-yl)-1H-pyrazolo[4,3-d]pyrimidin-7-amine] had an IC50 of less than 10 nM.

For `CC(C)n1cc(Nc2nc(-c3cnn(C)c3)nc3cn[nH]c23)cn1` [Example 420, N-(1-isopropyl-1H-pyrazol-4-yl)-5-(1-methyl-1H-pyrazol-4-yl)-1H-pyrazolo[4,3-d]pyrimidin-7-amine], the IC50 lay within 10 to 100 nM.

On to `COc1cc(Nc2nc(-c3cccc(NS(C)(=O)=O)c3)nc3cn[nH]c23)ccc1N1CCOCC1` [Example 41, N-(3-(7-((3-methoxy-4-morpholinophenyl)amino)-1H-pyrazolo[4,3-d]pyrimidin-5-yl)phenyl)methanesulfonamide], for which the IC50 is 100 to 1000 nM.

In turn, `O=C(c1ccc(Nc2nc(C3CCC3)nc3cn[nH]c23)cc1F)N1CCOCC1` [Example 193, (4-((5-cyclobutyl-1H-pyrazolo[4,3-d]pyrimidin-7-yl)amino)-2-fluorophenyl)(morpholino)methanone] gave an IC50 of 100 to 1000 nM.

`CCN1C(=O)COc2ccc(Nc3nc(-c4ccoc4)nc4cn[nH]c34)cc21` [Example 485, 4-ethyl-6-((5-(furan-3-yl)-1H-pyrazolo[4,3-d]pyrimidin-7-yl)amino)-2H-benzo[b][1,4]oxazin-3(4H)-one] returned an IC50 of 100 to 1000 nM.

`CC(C)c1nc(Nc2cnn(C3CCOCC3)c2)c2[nH]ncc2n1` [Example 182, 5-isopropyl-N-(1-(tetrahydro-2H-pyran-4-yl)-1H-pyrazol-4-yl)-1H-pyrazolo[4,3-d]pyrimidin-7-amine] came in with a concentration for half-maximal inhibition (IC50) of 100 to 1000 nM.

On to `CC(C)n1cc(Nc2nc(-c3cccc(NS(C)(=O)=O)c3)nc3cn[nH]c23)cn1` [Example 259, N-(3-(7-((1-isopropyl-1H-pyrazol-4-yl)amino)-1H-pyrazolo[4,3-d]pyrimidin-5-yl)phenyl)methanesulfonamide], for which the IC50 was 10 to 100 nM.

Consider `COCCCn1cc(Nc2nc(-c3ncco3)nc3cn[nH]c23)cn1` [Example 251, N-(1-(3-methoxypropyl)-1H-pyrazol-4-yl)-5-(oxazol-2-yl)-1H-pyrazolo[4,3-d]pyrimidin-7-amine], for which the IC50 lay within 100 to 1000 nM.

With `CC(=O)N1CCN(c2ccc(Nc3nc(-c4ccc5cn[nH]c5c4)nc4cn[nH]c34)cc2)CC1` [Example 50, 1-(4-(4-((5-(1H-indazol-6-yl)-1H-pyrazolo[4,3-d]pyrimidin-7-yl)amino)phenyl)piperazin-1-yl)ethan-1-one], the IC50 is less than 10 nM.

Turning to `Oc1ccccc1Nc1nc(-c2ccc3cn[nH]c3c2)nc2cn[nH]c12` [Example 506, 2-((5-(1H-indazol-6-yl)-1H-pyrazolo[4,3-d]pyrimidin-7-yl)amino)phenol], the IC50 lay within 100 to 1000 nM.

Take `Fc1cc(Nc2nc(C3CC3)nc3cn[nH]c23)ccc1N1CCOCC1` [Example 34, 5-cyclopropyl-N-(3-fluoro-4-morpholinophenyl)-1H-pyrazolo[4,3-d]pyrimidin-7-amine]: the IC50 lay within 100 to 1000 nM.

On to `COCC(COC)n1cc(Nc2nc(-c3ccco3)nc3cn[nH]c23)cn1` [Example 455, N-(1-(1,3-dimethoxypropan-2-yl)-1H-pyrazol-4-yl)-5-(furan-2-yl)-1H-pyrazolo[4,3-d]pyrimidin-7-amine], for which the 50% inhibitory concentration (IC50) fell in the range of 100 to 1000 nM.

`OC1CCN(c2ccc(Nc3nc(-c4ccoc4)nc4cn[nH]c34)cc2)CC1` [Example 443, 1-(4-((5-(furan-3-yl)-1H-pyrazolo[4,3-d]pyrimidin-7-yl)amino)phenyl)piperidin-4-ol]: the IC50 lay in the range of 10 to 100 nM.

`CN1C(=O)COc2ccc(Nc3nc(-c4ccc5cn[nH]c5c4)nc4cn[nH]c34)cc21` [Example 470, 6-((5-(1H-indazol-6-yl)-1H-pyrazolo[4,3-d]pyrimidin-7-yl)amino)-4-methyl-2H-benzo[b][1,4]oxazin-3(4H)-one] registered an IC50 of 100 to 1000 nM.

`OC1CCN(c2ccc(Nc3nc(-c4ccco4)nc4cn[nH]c34)cc2)CC1` [Example 450, 1-(4-((5-(furan-2-yl)-1H-pyrazolo[4,3-d]pyrimidin-7-yl)amino)phenyl)piperidin-4-ol]: the IC50 was in the range of 10 to 100 nM.

Take `CC(C)(C)N1CCC(n2cc(Nc3nc(-c4nc5ccccc5s4)nc4cn[nH]c34)cn2)CC1` [Example 411, 5-(benzo[d]thiazol-2-yl)-N-(1-(1-(tert-butyl)piperidin-4-yl)-1H-pyrazol-4-yl)-1H-pyrazolo[4,3-d]pyrimidin-7-amine]: the IC50 was less than 10 nM.

Turning to `COCC(COC)n1cc(Nc2nc(C3CCC3)nc3cn[nH]c23)cn1` [Example 463, 5-cyclobutyl-N-(1-(1,3-dimethoxypropan-2-yl)-1H-pyrazol-4-yl)-1H-pyrazolo[4,3-d]pyrimidin-7-amine], the IC50 is 100 to 1000 nM.

Compound `COCCCn1cc(Nc2nc(C3CC3)nc3cn[nH]c23)cn1` [Example 230, 5-cyclopropyl-N-(1-(3-methoxypropyl)-1H-pyrazol-4-yl)-1H-pyrazolo[4,3-d]pyrimidin-7-amine] had an IC50 of 10 to 100 nM.

`NS(=O)(=O)c1cccc(-c2nc(Nc3cnn(CCO)c3)c3[nH]ncc3n2)c1` [Example 526, 3-(7-((1-(2-hydroxyethyl)-1H-pyrazol-4-yl)amino)-1H-pyrazolo[4,3-d]pyrimidin-5-yl)benzenesulfonamide] gave an IC50 of 10 to 100 nM.

The compound `COC(=O)c1cccc(-c2nc(Nc3cnn(C4CCOCC4)c3)c3[nH]ncc3n2)c1` [Example 216, methyl 3-(7-((1-(tetrahydro-2H-pyran-4-yl)-1H-pyrazol-4-yl)amino)-1H-pyrazolo[4,3-d]pyrimidin-5-yl)benzoate] had an IC50 of 10 to 100 nM.

As to `c1ccc(-n2cc(Nc3nc(-c4ccc5cn[nH]c5c4)nc4cn[nH]c34)cn2)nc1` [Example 472, 5-(1H-indazol-6-yl)-N-(1-(pyridin-2-yl)-1H-pyrazol-4-yl)-1H-pyrazolo[4,3-d]pyrimidin-7-amine], the IC50 was in the range of 100 to 1000 nM.

Consider `COCCCn1cc(Nc2nc(-c3ccoc3)nc3cn[nH]c23)cn1` [Example 221, 5-(furan-3-yl)-N-(1-(3-methoxypropyl)-1H-pyrazol-4-yl)-1H-pyrazolo[4,3-d]pyrimidin-7-amine], for which the IC50 was less than 10 nM.

Compound `N#Cc1cc(Nc2nc(-c3ccc4cn[nH]c4c3)nc3cn[nH]c23)ccc1N1CCOCC1` [Example 85, 5-((5-(1H-indazol-6-yl)-1H-pyrazolo[4,3-d]pyrimidin-7-yl)amino)-2-morpholinobenzonitrile] gave an IC50 of 10 to 100 nM.

With `COc1ccc(Nc2nc(-c3ccc(C)s3)nc3cn[nH]c23)cc1OC` [Example 8, N-(3,4-dimethoxyphenyl)-5-(5-methylthiophen-2-yl)-1H-pyrazolo[4,3-d]pyrimidin-7-amine], the IC50 is 100 to 1000 nM.

The compound `CC(C)n1ncc(Nc2nc(C3CCC3)nc3cn[nH]c23)c1Cl` [Example 312, N-(5-chloro-1-isopropyl-1H-pyrazol-4-yl)-5-cyclobutyl-1H-pyrazolo[4,3-d]pyrimidin-7-amine] returned an IC50 of 100 to 1000 nM.

`O=C(O)c1cccc(-c2nc(Nc3cnn(C4CCOCC4)c3)c3[nH]ncc3n2)c1` [Example 217, 3-(7-((1-(tetrahydro-2H-pyran-4-yl)-1H-pyrazol-4-yl)amino)-1H-pyrazolo[4,3-d]pyrimidin-5-yl)benzoic acid] came in with an IC50 of 100 to 1000 nM.

Take `COCCn1cc(Nc2nc(-c3ncco3)nc3cn[nH]c23)cn1` [Example 256, N-(1-(2-methoxyethyl)-1H-pyrazol-4-yl)-5-(oxazol-2-yl)-1H-pyrazolo[4,3-d]pyrimidin-7-amine]: the IC50 was 100 to 1000 nM.

Turning to `O=C1OCCN1c1ccc(Nc2nc(-c3cccs3)nc3cn[nH]c23)cc1` [Example 38], the IC50 was in the range of 100 to 1000 nM.

The compound `CC(C)(C)n1cc(Nc2nc(-c3cccc(NS(C)(=O)=O)c3)nc3cn[nH]c23)cn1` [Example 258, N-(3-(7-((1-(tert-butyl)-1H-pyrazol-4-yl)amino)-1H-pyrazolo[4,3-d]pyrimidin-5-yl)phenyl)methanesulfonamide] showed an IC50 of 100 to 1000 nM.

`Clc1c(Nc2nc(C3CCC3)nc3cn[nH]c23)cnn1C1CCNCC1` [Example 364, N-(5-chloro-1-(piperidin-4-yl)-1H-pyrazol-4-yl)-5-cyclobutyl-1H-pyrazolo[4,3-d]pyrimidin-7-amine] gave an IC50 of 100 to 1000 nM.
